Source: patent US20210059246A1, “METHOD FOR EFFECTIVELY CONTROLLING COCCOID INSECT PESTS” (Ecología y Protección Agrícola, S.L., priority 2017, published 2021)
Where “and” joins values, the source holds several entries; their conditions need not be identical. Equal values may be shown once.

What was measured:
Aonidiella aurantii [1] = assay: Field control of A. aurantii in citrus crops, percentage of damaged fruit; type: in vivo; settings: 15.00 μg/diffuser/day
Description: With the final effective flow value (15 μg/diffuser/day), the assays for ascertaining the effective flow rate resulting from the combinations of the final effective flow of 15 μg/diffuser/day with an effective number of devices of 500 diffusers/ha, 380 diffusers/ha, 250 diffusers/ha, 100 diffusers/ha and 50 diffusers/ha continued in 2017, in addition to the result of chemical controls carried out using the products currently authorized to combat this pest. The effectiveness of the treatments was evaluated in accordance with the percentage of damaged fruit by means of sampling prior to picking the fruit. In order to determine said percentage, the number of shields of A. aurantii females per fruit was counted using the following protocol: 20 trees were selected per hectare and 10 fruits were taken from each tree: 8 from the exterior (from all the orientations and randomly) and 2 from the interior (randomly). A fruit with more than 10 shields was considered damaged. In the case of the treatment based on chemical control, a surface area equivalent to the other treatments was evaluated.

[2] = test system: Aonidiella aurantii males; settings: within natural semiochemical matrix; Vacas et al. 2017; cited from earlier work
[3] = test system: Aonidiella aurantii males; assay: Field trap test: effective flow attracting A. aurantii males within the interlinked semiochemical matrix; type: in vivo; settings: for EFFECTIVE FLOW: orange
Description: Experiments for obtaining an effective flow to combat the diaspidid Aonidiella aurantii were carried out on citrus crops located in the province of Huelva in 2015 and 2016.
For these assays, four plots of different varieties of citrus trees with surface areas comprised between 2 and 10 hectares were initially taken.
An artificial semiochemical matrix 1 was generated therein by arranging 500 diffusers/ha, with a substantially constant initial emission flow-1 of 300 μg/diffuser/day (optimal flow according to the state of the art) of (3S,6RS)-3-methyl-6-isopropenyl-9-decen-1-yl acetate.
In the interior of these artificial semiochemical matrices, two blocks of seven diffusers with different emission flows were installed in each assay. These blocks were separated by a distance of more than 80 meters therebetween and the diffusers were separated 25 meters intra-block. Each block included: • (a) a glued trap, without any kind of semiochemical emission; • (b) a glued trap, with a diffuser with a substantially constant emission flow of 25 μg/day of (3S,6RS)-3-methyl-6-isopropenyl-9-decen-1-yl acetate. • (c) a glued trap, with a diffuser with a substantially constant emission flow of 50 μg/day of (3S,6RS)-3-methyl-6-isopropenyl-9-decen-1-yl acetate. • (d) a glued trap, with a diffuser with a substantially constant emission flow of 100 μg/day of (3S,6RS)-3-methyl-6-isopropenyl-9-decen-1-yl acetate. • (e) a glued trap with a diffuser with a substantially constant emission flow of 200 μg/day of (3S,6RS)-3-methyl-6-isopropenyl-9-decen-1-yl acetate. • (f) a glued trap with a diffuser with a substantially constant emission flow of 300 μg/day of (3S,6RS)-3-methyl-6-isopropenyl-9-decen-1-yl acetate (initial flow-1). • (g) a glued trap with a diffuser with a substantially constant emission flow of 400 μg/day of (3S,6RS)-3-methyl-6-isopropenyl-9-decen-1-yl acetate.
All the traps were placed in the trees at a height of 1.5 m. The traps used were of the 9.5×15 cm white sticky sheet type. Diffusers with a substantially constant emission flow were fixed to the center of the sticky sheet. Replacement of the sheets, intra-block rotation of the traps and reading of the male captures was performed on a weekly basis. Upon completing the first rotation of the traps, it was observed that those whose emission corresponded to the flow of […] had the highest number of captured males and not the traps with an initial flow-1 of 300 μg/diffuser/day (FIG. 1).
Subsequently, a new iteration for obtaining the effective flow-2 within the new interlinked matrix was initiated, to which end the previous diffusers were withdrawn and a new artificial semiochemical matrix-2 was generated through the installation of 500 diffusers/ha, with a substantially constant initial emission flow-2 equal to 25 μg/day (effective flow-1) of (3S,6RS)-3-methyl-6-isopropenyl-9-decen-1-yl acetate.
Two blocks of seven diffusers were installed in the interior of this new interlinked semiochemical matrix in each assay. These blocks were separated by a distance of more than 80 meters therebetween and the diffusers were separated 25 meters intra-block. […]

Aonidiella aurantii [4] = assay: Field control of A. aurantii in citrus crops, percentage of damaged fruit; type: in vivo; settings: for EFFECTIVE CONTROL [% DAMAGE]: orange
Planococcus ficus males = assay: Field trap test: effective flow attracting P. ficus males within the interlinked semiochemical matrix; type: in vivo; settings: for EFFECTIVE FLOW: table grapes
Description: The response of the males of the species P. ficus, at different emission flows of senecioate S-lavandulyl, was evaluated in various field tests carried out on table grape crops located in the Municipal District of […] de Murcia and Totana, both municipalities in the Region of Murcia in 2015, 2016 and 2017. For these assays, four plots of different varieties of table grapes with surface areas comprised between 1 and 4 hectares were initially taken. An artificial semiochemical matrix-1 was generated therein through the installation of 1,000 diffusers/ha, with a substantially constant emission flow of 300 μg/day of S-lavandulyl senecioate (initial flow-1). The choice of this initial emission flow is based on the average emission of commercial diffusers for controlling this pest. In the interior of these artificial semiochemical matrices, two blocks of six diffusers with different emission flows were installed in each assay. These blocks were separated by a distance of more than 80 meters therebetween and the diffusers were separated 25 meters intra-block. Each block included: • (a) a glued trap, without any kind of semiochemical emission. • (b) a glued trap, with a substantially constant emission flow of 10 μg/day of S-lavandulyl senecioate. • (c) a glued trap, with a diffuser with a substantially constant emission flow of 50 μg/day of S-lavandulyl senecioate. • (d) a glued trap, with a diffuser with a substantially constant emission flow of 100 μg/day of S-lavandulyl senecioate. • (e) a glued trap with a diffuser with a substantially constant emission flow of 200 μg/day of S-lavandulyl senecioate. • (f) a glued trap with a diffuser with a substantially constant emission flow of 300 μg/day of S-lavandulyl senecioate (initial flow-1). All the traps were placed in the trees at a height of 2 m. The traps used were of the 9.5×15 cm white sticky sheet type. Diffusers with a substantially constant emission flow were fixed to the center of the sticky sheet. Replacement of the sheets, intra-block rotation of the traps and reading of the male captures was performed on a weekly basis. Upon completing the first rotation of the traps it was observed that those whose emission corresponded to the emission flow of […] (effective flow-1) achieved the highest number of captures within the interlinked semiochemical matrix (FIG. 4). Next, a new iteration for obtaining the effective flow-2 within the new interlinked matrix was initiated, to which end the previous diffusers were withdrawn and a new artificial semiochemical matrix-2 was generated through the installation of 1,000 diffusers/ha, with a substantially constant emission flow of 10 μg/day (effective flow-1) of S-lavandulyl senecioate. Two blocks of six diffusers were installed in the interior of this new interlinked semiochemical matrix in each assay. These blocks were separated by a distance of more than 80 meters therebetween and the diffusers were separated 25 meters intra-block. Each block included: • (a) a glued trap, without any kind of semiochemical emission; • (b) a glued trap, with a diffuser with a substantially constant emission flow of 0.1 μg/day of S-lavandulyl senecioate. • (c) a glued trap, with a diffuser with a substantially constant emission flow of 5 μg/day of S-lavandulyl senecioate. • (d) a glued trap, with a diffuser with a substantially constant emission flow of 10 μg/day of S-lavandulyl senecioate. • (e) a glued trap with a diffuser with a substantially constant emission flow of 15 μg/day of S-lavandulyl senecioate. • (f) a glued trap with a diffuser with a substantially constant emission flow of 25 μg/day of S-lavandulyl senecioate. • (g) a glued trap with a diffuser with a substantially constant emission flow of 50 μg/day of S-lavandulyl senecioate. All the traps were placed in the trees at a height of 2 m. The traps used were of the 9.5×15 cm white sticky sheet type. The diffusers with a substantially constant emission flow were fixed to the center of the sticky sheet. […]

Planococcus ficus = assay: Field control of P. ficus in table grape crops, percentage of bunches with presence of pest, molasses or fumigines; type: in vivo; settings: table grapes
Description: With the final definitive effective flow value (5-10 μg/diffuser/day), the assays for ascertaining the effective flow rate resulting from the combinations of the final effective flow with an effective number of devices of 1,000 diffusers/ha, 500 diffusers/ha, 250 diffusers/ha and 100 diffusers/ha continued in 2016 and 2017. Since the plots where the assays were carried out were used for organic or environmentally friendly farming, it was not possible to establish a chemical control for comparing the results of the effective control of Planococcus ficus. The effectiveness of the treatments was assessed in accordance with the percentage of bunches with presence of Planococcus ficus, molasses or fumigines by sampling prior to picking the grapes. In order to determine said percentage, 20 vines per hectare were taken randomly and 20 bunches were inspected in each, of which the 10 bunches closest to the center of the vine and the 10 bunches farthest from the vine were chosen, covering the entire vine. Both bunches in contact with primary branches were taken and isolated without touching any other branch. A total of […].

SMILES: C=CCCC(CC[C@H](C)CCOC(C)=O)C(=C)C (mixture of isomers) [(3S,6RS)-3-methyl-6-isopropenyl-9-decen-1-yl acetate]
- EFFECTIVE CONTROL [% DAMAGE] (Aonidiella aurantii [1]; 50 diff/Ha, 0.75 mg/Ha/day, 2017 Serra-Valencia, orange): 3.30% and 4.00%
- EFFECTIVE CONTROL [% DAMAGE] (Aonidiella aurantii [1]; 100 diff/Ha, 1.50 mg/Ha/day, 2017 Serra-Valencia, orange): 5.10% and 3.80%
- EFFECTIVE CONTROL [% DAMAGE] (Aonidiella aurantii [1]; 250 diff/Ha, 3.75 mg/Ha/day, 2017 Monserrat-Valencia, mandarine): 4.20%
- EFFECTIVE CONTROL [% DAMAGE] (Aonidiella aurantii [1]; 250 diff/Ha, 3.75 mg/Ha/day, 2017 Monserrat-Valencia, orange): 3.00%
- EFFECTIVE CONTROL [% DAMAGE] (Aonidiella aurantii [1]; 250 diff/Ha, 3.75 mg/Ha/day, 2017 Picasent-Valencia, mandarine): 1.90%
- optimal flow according to the state of the art [2]: 300 μg/diffuser/day
- EFFECTIVE FLOW ([3]; 1st iteration, artificial semiochemical matrix 300.00 μg/diffuser/day, 500 diff/Ha, 2015 Rio Tinto-Huelva): 25.00 μg/diffuser/day
- EFFECTIVE FLOW ([3]; 2nd iteration, artificial semiochemical matrix 25.00 μg/diffuser/day, 500 diff/Ha, 2016 Nerva Huelva): 15.00 μg/diffuser/day
- EFFECTIVE FLOW ([3]; 3rd iteration, artificial semiochemical matrix 15.00 μg/diffuser/day, 380 diff/Ha, 2016 El Campillo-Huelva): 15.00 μg/diffuser/day
- emission flow with the highest number of captured males (effective flow-1) ([3]; first rotation, matrix-1 of 500 diffusers/ha at 300 μg/diffuser/day, FIG. 1): 25 µg/diffuser/day
- emission flow with higher number of captures (effective flow-2) ([3]; matrix-2 of 500 diffusers/ha at 25 μg/day, FIG. 2): 15 µg/day
- final effective flow ([3]; third iteration, matrix of 500 diffusers/ha at 15 μg/day, FIG. 3): 15 μg/diffuser/day
- effective flow rate value determined within the interlinked semiochemical matrix after successive iterations (Aonidiella aurantii [4]; 5 μg/day at 500 emission points per hectare): 2.5 mg per hectare and day
- EFFECTIVE CONTROL [% DAMAGE] (Aonidiella aurantii [4]; 15.00 μg/diffuser/day, 380 diff/Ha, 5.70 mg/Ha/day, 2016 El Campillo-Huelva): 1.70% and 0.70% and 0.60%
- flow rate corresponding to the optimal flow according to the state of the art (Aonidiella aurantii [4]; 300 μg/day at 500 emission points per hectare): 150 mg per hectare and day
- EFFECTIVE CONTROL [% DAMAGE] (Aonidiella aurantii [4]; matrix 25.00 μg/diffuser/day, 500 diff/Ha, 12.50 mg/Ha/day, 2016 Nerva Huelva): 7.30% and 7.50% and 8.00%

SMILES: C=C(C)[C@H](CC=C(C)C)COC(=O)C=C(C)C [S-lavandulyl senecioate]
- EFFECTIVE FLOW (Planococcus ficus males; 1st iteration, artificial semiochemical matrix 300.00 μg/diffuser/day, 1,000 diff/Ha, 2015 Alhama de Murcia): 10.00 μg/diffuser/day
- EFFECTIVE FLOW (Planococcus ficus males; 2nd iteration, artificial semiochemical matrix 10.00 μg/diffuser/day, 1,000 diff/Ha, 2016 Alhama de Murcia): 10.00 μg/diffuser/day
- EFFECTIVE FLOW (Planococcus ficus males; 3rd iteration, artificial semiochemical matrix 5.00 μg/diffuser/day, 1,000 diff/Ha, 2017 Alhama de Murcia): 5.00 μg/diffuser/day
- EFFECTIVE FLOW (Planococcus ficus males; 3rd iteration, artificial semiochemical matrix 10.00 μg/diffuser/day, 500 diff/Ha, 2016 Alhama de Murcia): 10.00 μg/diffuser/day
- final definitive effective flow value (Planococcus ficus males; after second iteration): 5-10 μg/diffuser/day
- emission flow with the highest number of captures (effective flow-1) (Planococcus ficus males; matrix-1 of 1,000 diffusers/ha at 300 μg/day, FIG. 4): 10 µg/day
- flows with the highest number of male captures (Planococcus ficus males; matrix-2 of 1,000 diffusers/ha at 10 μg/day, FIG. 5): 5 µg/day and 10 µg/day
- EFFECTIVE CONTROL [% DAMAGE] (Planococcus ficus; 5 μg/diffuser/day, 100 diff/Ha, 0.50 mg/Ha/day, 2017 Totana-Murcia): 4.50%
- EFFECTIVE CONTROL [% DAMAGE] (Planococcus ficus; 5 μg/diffuser/day, 250 diff/Ha, 1.25 mg/Ha/day, 2017 Totana-Murcia): 1.80%
- EFFECTIVE CONTROL [% DAMAGE] (Planococcus ficus; 5.00 μg/diffuser/day, 500 diff/Ha, 2.50 mg/Ha/day, 2017 Alhama de Murcia): 0.80% and 1.40%
- EFFECTIVE CONTROL [% DAMAGE] (Planococcus ficus; 5.00 μg/diffuser/day, 1,000 diff/Ha, 5.00 mg/Ha/day, 2017 Alhama de Murcia): 2.30% and 0.00%
- EFFECTIVE CONTROL [% DAMAGE] (Planococcus ficus; 10 μg/diffuser/day, 100 diff/Ha, 1.00 mg/Ha/day, 2017 Totana-Murcia): 3.00%
- EFFECTIVE CONTROL [% DAMAGE] (Planococcus ficus; 10 μg/diffuser/day, 250 diff/Ha, 2.50 mg/Ha/day, 2017 Totana-Murcia): 2.90%
- EFFECTIVE CONTROL [% DAMAGE] (Planococcus ficus; 10.00 μg/diffuser/day, 500 diff/Ha, 5.00 mg/Ha/day, 2016 Alhama de Murcia): 0%
- EFFECTIVE CONTROL [% DAMAGE] (Planococcus ficus; 10.00 μg/diffuser/day, 1,000 diff/Ha, 10.00 mg/Ha/day, 2016 Alhama de Murcia): 1.20% and 0.90% and 3.70%
